From ChEMBL document CHEMBL4814061, “Novel Azaquinolones as PARP1 Inhibitors for Treating Cancer” (ACS Med Chem Lett, 2021) come the findings set out here.

pIC50: −log10 of the molar value.

By pIC50 is commonly meant −log10 of the IC50, conventionally taken in molar units.

The assay deals with Poly [ADP-ribose] polymerase 1 (Homo sapiens, UniProt P09874). In words: Inhibition of recombinant full length 6His-tagged PARP1 (unknown origin) incubated for 4 hrs by fluorescence anisotropy assay. Background: In fluorescence polarisation assays a small probe gives low polarisation when free and higher when bound to something large.
Sequence of Poly [ADP-ribose] polymerase 1 (P09874 whole entry): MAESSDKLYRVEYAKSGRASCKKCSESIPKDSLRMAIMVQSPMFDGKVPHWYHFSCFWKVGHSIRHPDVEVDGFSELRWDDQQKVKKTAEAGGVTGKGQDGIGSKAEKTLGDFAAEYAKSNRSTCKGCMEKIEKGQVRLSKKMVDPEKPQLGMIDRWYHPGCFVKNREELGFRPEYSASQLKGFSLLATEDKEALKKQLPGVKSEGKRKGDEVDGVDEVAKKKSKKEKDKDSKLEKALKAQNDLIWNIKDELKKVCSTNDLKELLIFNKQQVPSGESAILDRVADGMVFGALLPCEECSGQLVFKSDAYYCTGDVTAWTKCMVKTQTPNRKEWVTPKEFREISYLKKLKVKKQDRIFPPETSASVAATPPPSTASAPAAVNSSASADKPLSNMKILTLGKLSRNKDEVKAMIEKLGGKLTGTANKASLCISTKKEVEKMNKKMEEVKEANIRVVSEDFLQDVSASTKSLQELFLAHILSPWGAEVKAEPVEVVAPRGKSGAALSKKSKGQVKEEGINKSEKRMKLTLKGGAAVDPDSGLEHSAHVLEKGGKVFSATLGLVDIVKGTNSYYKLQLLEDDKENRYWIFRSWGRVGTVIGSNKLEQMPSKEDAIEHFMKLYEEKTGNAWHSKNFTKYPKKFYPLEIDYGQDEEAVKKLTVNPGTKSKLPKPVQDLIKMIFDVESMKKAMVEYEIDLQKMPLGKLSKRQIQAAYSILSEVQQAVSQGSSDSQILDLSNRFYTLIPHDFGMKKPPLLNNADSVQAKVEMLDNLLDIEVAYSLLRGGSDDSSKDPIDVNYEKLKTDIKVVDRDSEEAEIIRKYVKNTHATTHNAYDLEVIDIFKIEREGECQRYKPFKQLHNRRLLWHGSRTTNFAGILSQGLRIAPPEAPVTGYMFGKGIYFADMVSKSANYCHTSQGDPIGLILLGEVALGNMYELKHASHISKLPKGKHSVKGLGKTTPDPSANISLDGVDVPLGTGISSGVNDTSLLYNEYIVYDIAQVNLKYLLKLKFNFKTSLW
On to `CNC(=O)c1ccc(N2CCN(Cc3cc4[nH]c(=O)c(CCF)cc4cn3)CC2)cn1`, for which the pIC50 was 8.70.
The result for `CCc1cc2cnc(CN3CCN(c4ccc(C(=O)NC)nc4Cl)CC3)cc2[nH]c1=O` reads 8.52.
For the compound `CNC(=O)c1ccc(N2CCN(Cc3cc4[nH]c(=O)c(CC(F)F)cc4cn3)CC2)c(F)n1`, the pIC50 is 8.52.
`CCc1cc2cnc(CN3CCN(c4ccc(C(=O)NC)nc4F)CC3)cc2[nH]c1=O`: the pIC50 is 8.70.
Turning to `CCc1cc2cnc(CN3CCN(c4ccc(C(N)=O)nc4)CC3)cc2[nH]c1=O`, the pIC50 is 8.70.
